PubChem BioAssay (NCI)
“And” between values parts separate entries of the source, which are not always exact repeats. Equal entries are not always repeated.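 Step 1: Grow cells in 96-well plates. Step 2: Expose to compound for 48 hours at 5 concentrations. Step 3: Interpolate endpoints linearly; if unreached, use highest concentration. At the GI50, growth is halved. TGI: concentration producing complete growth inhibition.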

Experiments:
Experiment in all cases: DTP human tumour cell line panel, 48 h
SK-MEL-5 melanoma = system: SK-MEL-5 melanoma
HCC-2998 colon = system: HCC-2998 colon
IGROV1 ovarian = system: IGROV1 ovarian
CCRF-CEM leukemia = system: CCRF-CEM leukemia
U251 CNS = system: U251 CNS
XF 498 CNS = system: XF 498 CNS
ACHN renal = system: ACHN renal
RXF 393 renal = system: RXF 393 renal
UACC-257 melanoma = system: UACC-257 melanoma
EKVX NSCLC = system: EKVX NSCLC
NCI-H460 lung = system: NCI-H460 lung
OVCAR-4 ovarian = system: OVCAR-4 ovarian
UACC-62 melanoma = system: UACC-62 melanoma
M14 melanoma = system: M14 melanoma
SF-268 CNS = system: SF-268 CNS
HOP-92 NSCLC = system: HOP-92 NSCLC
M19-MEL melanoma = system: M19-MEL melanoma
HL-60(TB) leukemia = system: HL-60(TB) leukemia
SF-539 CNS = system: SF-539 CNS
DMS 273 small cell lung = system: DMS 273 small cell lung
LXFL 529 NSCLC = system: LXFL 529 NSCLC
HCT-15 colon = system: HCT-15 colon
SW-620 colon = system: SW-620 colon
SNB-75 CNS = system: SNB-75 CNS
OVCAR-3 ovarian = system: OVCAR-3 ovarian
DLD-1 colon = system: DLD-1 colon
SK-OV-3 ovarian = system: SK-OV-3 ovarian
COLO 205 colon = system: COLO 205 colon
SK-MEL-28 melanoma = system: SK-MEL-28 melanoma
TK-10 renal = system: TK-10 renal
UO-31 renal = system: UO-31 renal
SN12C renal = system: SN12C renal
OVCAR-8 ovarian = system: OVCAR-8 ovarian
786-0 renal = system: 786-0 renal
RPMI-8226 leukemia = system: RPMI-8226 leukemia
SK-MEL-2 melanoma = system: SK-MEL-2 melanoma
KM12 colon = system: KM12 colon
HT29 colon = system: HT29 colon
K-562 leukemia = system: K-562 leukemia
RXF-631 renal = system: RXF-631 renal
LOX IMVI melanoma = system: LOX IMVI melanoma
NCI-H522 lung = system: NCI-H522 lung
HOP-18 NSCLC = system: HOP-18 NSCLC
SF-295 CNS = system: SF-295 CNS
CAKI-1 renal = system: CAKI-1 renal
MOLT-4 leukemia = system: MOLT-4 leukemia
A549 NSCLC = system: A549 NSCLC
KM20L2 colon = system: KM20L2 colon
SNB-19 CNS = system: SNB-19 CNS
OVCAR-5 ovarian = system: OVCAR-5 ovarian
NCI-H23 lung = system: NCI-H23 lung
A498 renal = system: A498 renal
MALME-3M melanoma = system: MALME-3M melanoma
NCI-H226 lung = system: NCI-H226 lung

Question: What does the source list for Cc1ccc(S(=O)(=O)NC(C)C(=O)O)cc1 (stereo unspecified)?
Answer: TGI (SK-MEL-5 melanoma): > 100 µM; TGI (HCC-2998 colon): > 100 µM; TGI (IGROV1 ovarian): > 100 µM; GI50 (CCRF-CEM leukemia): 47.2 µM and > 100 µM; TGI (CCRF-CEM leukemia): > 100 µM; TGI (U251 CNS): > 100 µM; TGI (XF 498 CNS): > 100 µM; TGI (ACHN renal): > 100 µM; TGI (RXF 393 renal): > 100 µM; TGI (UACC-257 melanoma): > 100 µM; TGI (EKVX NSCLC): > 100 µM; TGI (NCI-H460 lung): > 100 µM; TGI (OVCAR-4 ovarian): > 100 µM; TGI (UACC-62 melanoma): > 100 µM; TGI (M14 melanoma): > 100 µM; TGI (SF-268 CNS): > 100 µM; TGI (HOP-92 NSCLC): > 100 µM; TGI (M19-MEL melanoma): > 100 µM; TGI (HL-60(TB) leukemia): > 100 µM; TGI (SF-539 CNS): > 100 µM; TGI (DMS 273 small cell lung): > 100 µM; TGI (LXFL 529 NSCLC): > 100 µM; TGI (HCT-15 colon): > 100 µM; TGI (SW-620 colon): > 100 µM; TGI (SNB-75 CNS): > 100 µM; TGI (OVCAR-3 ovarian): > 100 µM; TGI (DLD-1 colon): > 100 µM; TGI (SK-OV-3 ovarian): > 100 µM; TGI (COLO 205 colon): > 100 µM; TGI (SK-MEL-28 melanoma): > 100 µM; TGI (TK-10 renal): > 100 µM; TGI (UO-31 renal): > 100 µM; TGI (SN12C renal): > 100 µM; TGI (OVCAR-8 ovarian): > 100 µM; TGI (786-0 renal): > 100 µM; TGI (RPMI-8226 leukemia): > 100 µM; TGI (SK-MEL-2 melanoma): > 100 µM; TGI (KM12 colon): > 100 µM; TGI (HT29 colon): > 100 µM; GI50 (K-562 leukemia): > 100 µM; TGI (K-562 leukemia): > 100 µM; TGI (RXF-631 renal): > 100 µM; TGI (LOX IMVI melanoma): > 100 µM; TGI (NCI-H522 lung): > 100 µM; TGI (HOP-18 NSCLC): > 100 µM; TGI (SF-295 CNS): > 100 µM; TGI (CAKI-1 renal): > 100 µM; TGI (MOLT-4 leukemia): > 100 µM; TGI (A549 NSCLC): > 100 µM; TGI (KM20L2 colon): > 100 µM; TGI (SNB-19 CNS): > 100 µM; TGI (OVCAR-5 ovarian): > 100 µM; TGI (NCI-H23 lung): > 100 µM; TGI (A498 renal): > 100 µM; TGI (MALME-3M melanoma): > 100 µM; TGI (NCI-H226 lung): > 100 µM
